Assays:
KB 3-1 [1] = assay: Cytotoxicity was evaluated against KB-3-1 cells at 10 ug/mL; assay type: functional; conditions: Homo sapiens
KB-C2 [2] = assay: The compound was evaluated to Inhibit the growth of KB-C2 cells at 1 ug/mL n the presence of colchicine (0.1 ug/ML)
KB-C2 [3] = assay: The compound was evaluated to Inhibit the growth of KB-C2 cells at 3 ug/mL n the presence of colchicine (0.1 ug/ML)
KB-C2 [4] = assay: The compound was evaluated to Inhibit the growth of KB-C2 cells at 10 ug/mL in the presence of colchicine (0.1 ug/ML)
KB-CV60 [5] = assay: The compound was evaluated to Inhibit the growth of KB CV-60 cells at 1 ug/mL in the presence of vincristine (0.1 ug/ML)
KB-CV60 [6] = assay: The compound was evaluated to Inhibit the growth of KB CV-60 cells at 3 ug/mL in the presence of vincristine (0.1 ug/ML)
KB-CV60 [7] = assay: The compound was evaluated to Inhibit the growth of KB CV-60 cells at 10 ug/mL in the presence of vincristine (0.1 ug/ML)
KB 3-1 [8] = assay: Cytotoxicity was evaluated against KB-3-1 cells at 3 ug/mL; assay type: functional; conditions: Homo sapiens
KB 3-1 [9] = assay: Cytotoxicity was evaluated against KB CV-60 cells at 0.1 ug/mL; No cytotoxicity; assay type: functional, cell-based; conditions: Homo sapiens
KB 3-1 [10] = assay: Cytotoxicity was evaluated against KB-C2 cells at 0.1 ug/mL; No cytotoxicity; assay type: functional, cell-based; conditions: Homo sapiens

Structure (SMILES)	inhibition at 10 µg/mL (KB 3-1 [1])	Inhibition (KB-C2 [2])	Inhibition (KB-C2 [3])	Inhibition (KB-C2 [4])	Inhibition (KB-CV60 [5])	Inhibition (KB-CV60 [6])	Inhibition (KB-CV60 [7])	inhibition at 3 µg/mL (KB 3-1 [8])	Cytotoxicity (KB 3-1 [9])	Cytotoxicity (KB 3-1 [10])
CC(=O)O[C@@H]1[C@@H]2[C@@H](OC(C)=O)C=C3[C@H]([C@H](O)C[C@]4(C)[C@@H]([C@H](C)[C@H](O)CCC(C)C)CC[C@@H]34)[C@@]2(C)CC[C@@H]1OC(C)=O [AGOSTEROL A]	13%	75%	82%	84%	66%	73%	76%			
CC(=O)O[C@H]1CC[C@@]2(C)[C@H](C1)[C@@H](OC(C)=O)C=C1[C@@H]2[C@H](O)C[C@]2(C)[C@@H]([C@H](C)[C@H](O)CCC(C)C)CC[C@@H]12	19%	44%	76%	87%	59%	64%	69%	13%		
CC(=O)O[C@H]1CC[C@@]2(C)[C@H](C1)[C@@H](OC(C)=O)C=C1[C@@H]2[C@H](O)C[C@]2(C)[C@@H]([C@H](C)CCCC(C)C)CC[C@@H]12	39%	37%	69%	88%	15%	25%	42%	5%		
COc1cc2c(c(OC)c1OC)-c1ccc(OC)c(=O)cc1[C@@H](NC(C)=O)CC2									No cytotoxicity	No cytotoxicity
CC[C@]1(O)C[C@H]2CN(CCc3c([nH]c4ccccc34)[C@@](C(=O)OC)(c3cc4c(cc3OC)N(C=O)[C@H]3[C@@](O)(C(=O)OC)[C@H](OC(C)=O)[C@]5(CC)C=CCN6CC[C@]43[C@@H]65)C2)C1									No cytotoxicity	No cytotoxicity

Reference: ChEMBL document CHEMBL1132809, “Synthesis and evaluation of 4-deacetoxyagosterol A as an MDR-modulator” (2000)
